Test results from PubChem BioAssay AID220 (DTP/NCI, 2004).
“And” between values parts separate entries of the source, which are not always exact repeats. Identical values can stand only once. Records with an inconclusive call do not appear.

Test system: CD8F1 mice, subcutaneous mammary adenocarcinoma, T/C%
Assay: NCI In Vivo Anticancer Drug Screen. Data for tumor model Mammary Adenocarcinoma CD8F1 (subcutaneous) in CD8F1
Settings: higher = larger tumour
How it was run: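 Tumor-bearing mice, transplantable model; readout survival or tumor size; value = treated (T) / vehicle control (C).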

[1] = endpoint: median tumor weight (est.), dose: 12.5 mg/kg/injection, schedule: Q07DX005 (ip), vehicle: Klucel (hydroxypropylcellulose) (HPC)
[2] = endpoint: median tumor weight (est.), dose: 25.0 mg/kg/injection, schedule: Q07DX005 (ip), vehicle: Klucel (hydroxypropylcellulose) (HPC)
[3] = endpoint: median tumor weight (est.), dose: 100.0 mg/kg/injection, schedule: Q07DX005 (ip), vehicle: Klucel (hydroxypropylcellulose) (HPC)
[4] = endpoint: median tumor weight (est.), dose: 25.0 mg/kg/injection, schedule: Q07DX005 (ip), vehicle: saline with Tween-80
[5] = endpoint: median tumor weight (est.), dose: 50.0 mg/kg/injection, schedule: Q07DX005 (ip), vehicle: saline with Tween-80
[6] = endpoint: median tumor weight (est.), dose: 100.0 mg/kg/injection, schedule: Q07DX005 (ip), vehicle: saline with Tween-80
[7] = endpoint: median tumor weight (est.), dose: 200.0 mg/kg/injection, schedule: Q07DX005 (ip), vehicle: saline with Tween-80
[8] = endpoint: median tumor weight (est.), dose: 400.0 mg/kg/injection, schedule: Q07DX005 (ip), vehicle: saline with Tween-80

With `COc1cc(NS(C)(=O)=O)ccc1Nc1c2ccccc2nc2ccccc12` the T/C (endpoint: mean tumor weight (est.), dose: 4.0 mg/kg/injection, schedule: Q07DX004 (ip), vehicle: saline) was 158 % of control, the T/C (endpoint: mean tumor weight (est.), dose: 8.0 mg/kg/injection, schedule: Q07DX004 (ip), vehicle: saline) was 120 % of control and the T/C (endpoint: mean tumor weight (est.), dose: 16.0 mg/kg/injection, schedule: Q07DX004 (ip), vehicle: saline) was 109 % of control. For the same compound, the T/C (endpoint: mean tumor weight (est.), dose: 32.0 mg/kg/injection, schedule: Q07DX004 (ip), vehicle: saline) was 79 % of control, the T/C (endpoint: mean tumor weight, dose: 2.0 mg/kg/injection, schedule: Q05DX005 (ip), vehicle: saline) was 66 % of control and the T/C (endpoint: mean tumor weight, dose: 4.0 mg/kg/injection, schedule: Q05DX005 (ip), vehicle: saline) was 82 % of control. The T/C (endpoint: mean tumor weight, dose: 4.0 mg/kg/injection, schedule: Q07DX004 (ip), vehicle: saline) was 51 % of control, the T/C (endpoint: mean tumor weight, dose: 8.0 mg/kg/injection, schedule: Q05DX005 (ip), vehicle: saline) was 62 % of control and the T/C (endpoint: mean tumor weight, dose: 8.0 mg/kg/injection, schedule: Q07DX004 (ip), vehicle: saline) was 28 % of control. The T/C (endpoint: mean tumor weight, dose: 16.0 mg/kg/injection, schedule: Q05DX005 (ip), vehicle: saline) was 39 % of control, the T/C (endpoint: mean tumor weight, dose: 16.0 mg/kg/injection, schedule: Q07DX004 (ip), vehicle: saline) was 23 % of control and the T/C (endpoint: mean tumor weight, dose: 32.0 mg/kg/injection, schedule: Q07DX004 (ip), vehicle: saline) was 18 % of control. For the same compound, the T/C (endpoint: median tumor weight (est.), dose: 1.0 mg/kg/injection, schedule: Q01DX005 (ip), vehicle: Klucel (hydroxypropylcellulose) (HPC)) was 73 % of control, the T/C (endpoint: median tumor weight (est.), dose: 2.0 mg/kg/injection, schedule: Q01DX005 (ip), vehicle: Klucel (hydroxypropylcellulose) (HPC)) was 94 % of control and the T/C (endpoint: median tumor weight (est.), dose: 2.0 mg/kg/injection, schedule: Q07DX005 (ip), vehicle: Klucel (hydroxypropylcellulose) (HPC)) was 195 % of control. The T/C (endpoint: median tumor weight (est.), dose: 4.0 mg/kg/injection, schedule: Q01DX005 (ip), vehicle: Klucel (hydroxypropylcellulose) (HPC)) was 80 % of control, the T/C (endpoint: median tumor weight (est.), dose: 4.0 mg/kg/injection, schedule: Q04DX005 (ip), vehicle: Klucel (hydroxypropylcellulose) (HPC)) was 119 % of control and the T/C (endpoint: median tumor weight (est.), dose: 4.0 mg/kg/injection, schedule: Q07DX005 (ip), vehicle: Klucel (hydroxypropylcellulose) (HPC)) was 42 % of control and 65 % of control. The T/C (endpoint: median tumor weight (est.), dose: 8.0 mg/kg/injection, schedule: Q01DX005 (ip), vehicle: Klucel (hydroxypropylcellulose) (HPC)) was 59 % of control, the T/C (endpoint: median tumor weight (est.), dose: 8.0 mg/kg/injection, schedule: Q04DX005 (ip), vehicle: Klucel (hydroxypropylcellulose) (HPC)) was 35 % of control and the T/C (endpoint: median tumor weight (est.), dose: 16.0 mg/kg/injection, schedule: Q01DX001 (ip), vehicle: Klucel (hydroxypropylcellulose) (HPC)) was 93 % of control. The T/C (endpoint: median tumor weight (est.), dose: 16.0 mg/kg/injection, schedule: Q01DX005 (ip), vehicle: Klucel (hydroxypropylcellulose) (HPC)) was 38 % of control, the T/C (endpoint: median tumor weight (est.), dose: 16.0 mg/kg/injection, schedule: Q04DX005 (ip), vehicle: Klucel (hydroxypropylcellulose) (HPC)) was 17 % of control and the T/C (endpoint: median tumor weight (est.), dose: 32.0 mg/kg/injection, schedule: Q01DX001 (ip), vehicle: Klucel (hydroxypropylcellulose) (HPC)) was 35 % of control. The T/C (endpoint: median tumor weight (est.), dose: 32.0 mg/kg/injection, schedule: Q07DX005 (ip), vehicle: Klucel (hydroxypropylcellulose) (HPC)) was 3 % of control and 10 % of control and the T/C (endpoint: median tumor weight (est.), dose: 64.0 mg/kg/injection, schedule: Q01DX001 (ip), vehicle: Klucel (hydroxypropylcellulose) (HPC)) was 39 % of control.

`Nc1ccccc1N` was tested, and the T/C [1] was 117 % of control, the T/C [2] was 155 % of control and the T/C [3] was 122 % of control. The T/C (endpoint: median tumor weight (est.), dose: 400.0 mg/kg/injection, schedule: Q07DX005 (ip), vehicle: Klucel (hydroxypropylcellulose) (HPC)) was 35 % of control.

With `Cn1cnc([N+](=O)[O-])c1S(=O)(=O)NCN1CCOCC1` the T/C [1] was 103 % of control, the T/C [2] was 164 % of control and 185 % of control and the T/C (endpoint: median tumor weight (est.), dose: 50.0 mg/kg/injection, schedule: Q07DX005 (ip), vehicle: Klucel (hydroxypropylcellulose) (HPC)) was 71 % of control. For the same compound, the T/C [3] was 82 % of control and 95 % of control.

`O=C1N(Cl)C(=O)C(c2ccc(Cl)cc2)(c2ccc(Cl)cc2)N1Cl` was tested, and the T/C (endpoint: median tumor weight (est.), dose: 12.5 mg/kg/injection, schedule: Q07DX005 (ip), vehicle: saline with Tween-80) was 98 % of control, the T/C [4] was 119 % of control and the T/C [5] was 91 % of control. For the same compound, the T/C [6] was 104 % of control, the T/C [7] was 113 % of control and the T/C [8] was 43 % of control. The T/C (endpoint: median tumor weight change, dose: 12.5 mg/kg/injection, schedule: Q01DX001 (ip), vehicle: saline with Tween-80) was 98 % of control, the T/C (endpoint: median tumor weight change, dose: 25.0 mg/kg/injection, schedule: Q01DX001 (ip), vehicle: saline with Tween-80) was 68 % of control and the T/C (endpoint: median tumor weight change, dose: 50.0 mg/kg/injection, schedule: Q01DX001 (ip), vehicle: saline with Tween-80) was 71 % of control. The T/C (endpoint: median tumor weight change, dose: 100.0 mg/kg/injection, schedule: Q01DX001 (ip), vehicle: saline with Tween-80) was 45 % of control and 48 % of control, the T/C (endpoint: median tumor weight change, dose: 200.0 mg/kg/injection, schedule: Q01DX001 (ip), vehicle: saline with Tween-80) was 44 % of control and 53 % of control and the T/C (endpoint: median tumor weight change, dose: 400.0 mg/kg/injection, schedule: Q01DX001 (ip), vehicle: saline with Tween-80) was 24 % of control.

For `CC1=C(C)C(=O)O[C@@H]([C@](C)(O)[C@]2(O)CC[C@@]3(O)[C@@H]4C[C@H]5O[C@]56[C@@H](O)C=CC(=O)[C@]6(C)[C@H]4CC[C@]23C)C1`, the T/C (endpoint: median tumor weight change, dose: 18.75 mg/kg/injection, schedule: Q01DX001 (ip), vehicle: saline) was 104 % of control, the T/C (endpoint: median tumor weight change, dose: 37.5 mg/kg/injection, schedule: Q01DX001 (ip), vehicle: saline) was 63 % of control and the T/C (endpoint: median tumor weight change, dose: 75.0 mg/kg/injection, schedule: Q01DX001 (ip), vehicle: saline) was 61 % of control.

With `CC(=O)Oc1ccc[nH]c1=O` the T/C [4] was 68 % of control, the T/C [5] was 88 % of control and the T/C [6] was 93 % of control. For the same compound, the T/C [7] was 102 % of control, the T/C [8] was 118 % of control and the T/C (endpoint: median tumor weight (est.), dose: 800.0 mg/kg/injection, schedule: Q07DX005 (ip), vehicle: saline with Tween-80) was 54 % of control.

`CC(=O)C1(O)Cc2c(O)c3c(c(O)c2C(OC2CC(N)C(O)C(C)O2)C1)C(=O)c1ccccc1C3=O` (centres undefined) was tested, and the T/C (endpoint: median tumor weight (est.), dose: 0.1 mg/kg/injection, schedule: Q07DX005 (ip), vehicle: saline) was 81 % of control, the T/C (endpoint: median tumor weight (est.), dose: 0.2 mg/kg/injection, schedule: Q07DX005 (ip), vehicle: saline) was 55 % of control and the T/C (endpoint: median tumor weight (est.), dose: 0.4 mg/kg/injection, schedule: Q07DX005 (ip), vehicle: saline) was 48 % of control.

`COc1cc(NCc2ccc3nc(N)nc(N)c3c2C)cc(OC)c1OC` (tested in a mixture with another compound) was tested, and the T/C (endpoint: median tumor weight (est.), dose: 32.0 mg/kg/injection, schedule: Q04DX007 (ip), vehicle: water) was 87 % of control, the T/C (endpoint: median tumor weight (est.), dose: 46.0 mg/kg/injection, schedule: Q07DX005 (ip), vehicle: water) was 24 % of control and the T/C (endpoint: median tumor weight (est.), dose: 47.4 mg/kg/injection, schedule: Q04DX007 (ip), vehicle: water) was 35 % of control. For the same compound, the T/C (endpoint: median tumor weight (est.), dose: 70.0 mg/kg/injection, schedule: Q07DX005 (ip), vehicle: water) was 27 % of control, the T/C (endpoint: median tumor weight (est.), dose: 71.1 mg/kg/injection, schedule: Q04DX007 (ip), vehicle: water) was 113 % of control and the T/C (endpoint: median tumor weight (est.), dose: 105.0 mg/kg/injection, schedule: Q07DX005 (ip), vehicle: water) was 24 % of control. The T/C (endpoint: median tumor weight (est.), dose: 106.7 mg/kg/injection, schedule: Q04DX007 (ip), vehicle: water) was 42 % of control, the T/C (endpoint: median tumor weight (est.), dose: 157.0 mg/kg/injection, schedule: Q07DX005 (ip), vehicle: water) was 13 % of control and the T/C (endpoint: median tumor weight (est.), dose: 160.0 mg/kg/injection, schedule: Q04DX007 (ip), vehicle: water) was 32 % of control.

For `CO[C@H](/C(C)=C/C=C/C(C)=C/c1coc(C)n1)[C@H](C)[C@H]1C[C@@H](O)[C@@]2(C)O[C@H]2/C=C/[C@@H](C)[C@@H]2C[C@@H](CC(=O)O2)C[C@H]2O[C@@H]2C(=O)O1`, the T/C (endpoint: median tumor weight change, dose: 0.06 mg/kg/injection, schedule: Q01DX001 (ip), vehicle: Klucel (hydroxypropylcellulose) (HPC)) was 175 % of control, the T/C (endpoint: median tumor weight change, dose: 0.25 mg/kg/injection, schedule: Q01DX001 (ip), vehicle: Klucel (hydroxypropylcellulose) (HPC)) was 83 % of control and the T/C (endpoint: median tumor weight change, dose: 0.5 mg/kg/injection, schedule: Q01DX001 (ip), vehicle: Klucel (hydroxypropylcellulose) (HPC)) was 110 % of control. For the same compound, the T/C (endpoint: median tumor weight change, dose: 1.0 mg/kg/injection, schedule: Q01DX001 (ip), vehicle: Klucel (hydroxypropylcellulose) (HPC)) was 101 % of control.

`CNC=O` was tested, and the T/C (endpoint: median tumor weight change, dose: 25.0 mg/kg/injection, schedule: Q01DX001 (ip), vehicle: saline) was 54 % of control, the T/C (endpoint: median tumor weight change, dose: 50.0 mg/kg/injection, schedule: Q01DX001 (ip), vehicle: saline) was 75 % of control and the T/C (endpoint: median tumor weight change, dose: 100.0 mg/kg/injection, schedule: Q01DX001 (ip), vehicle: saline) was 59 % of control. The T/C (endpoint: median tumor weight change, dose: 200.0 mg/kg/injection, schedule: Q01DX001 (ip), vehicle: saline sonified) was 48 % of control, the T/C (endpoint: median tumor weight change, dose: 200.0 mg/kg/injection, schedule: Q01DX001 (ip), vehicle: saline) was 72 % of control and the T/C (endpoint: median tumor weight change, dose: 800.0 mg/kg/injection, schedule: Q01DX001 (ip), vehicle: saline) was 154 % of control. For the same compound, the T/C (endpoint: median tumor weight change, dose: 1600.0 mg/kg/injection, schedule: Q01DX001 (ip), vehicle: saline) was 71 % of control and the T/C (endpoint: median tumor weight change, dose: 3200.0 mg/kg/injection, schedule: Q01DX001 (ip), vehicle: saline) was 108 % of control.
